The source of these data is patent US7449495B2, “Retinoid derivatives with antiangiogenic, antitumoral and proapoptotic activities” (Sigma-Tau Industrie Farmaceutiche Riunite S.p.A., priority 2001, dated 2008).

The test system of series [1] is Human ovarian carcinoma A2780/Dx (drug resistant). Description: Cytotoxicity test (sulphorodamine B), A2780/Dx. It counts as cell-based. The settings on record: 24 h incubation, survival 48 h after removal. An excerpt: (§1) Different cell lines deriving from solid tumors were also used. • 1. Human prostate carcinoma PC3 and DU145. These cell lines were maintained in RPMI 1640 medium containing 10% FCS, 1% sodium pyruvate and 1% glutamine; • 2. Human colon adenocarcinoma LoVo. This cell line was maintained in HAM's F-12 medium, containing 10% FCS and 1% glutamine. • 3. Human ovarian carcinoma such as A2780 and A2780/Dx, sensitive and resistant to drugs, respectively (doxorubicin, taxol, etoposide, vincristine); IGROV-1 and IGROV-1/Pt, sensitive and resistant to platinum-based chemotherapy, respectively, were maintained in RPMI 1640 medium containing 10% FCS, 1% sodium pyruvate and 1% glutamine; • 4. Human melanoma MeWo and MeS 2.21, glioblastoma GBM, no small cell lung carcinomas A431, NCI—H460, osteosarcomas SAOS and U2OS were maintained in RPMI 1640 medium containing 10% FCS, 1% sodium pyruvate and 1% glutamine.
(§2) The cytotoxicity tests were carried out using NB4 or HL-60 cells in suspension (10000/well). The cells were seeded in a volume of 250 μl in 96 well plates and incubated for 24 hours at 37° C. […] The optical density was measured using a Multiskan spectrophotometer at 540 nm. […]
(§3) Cell survival was determined by incubation with ST1926 for 24 hours, 48 hours after the removal of the compound. […]

Series [2] concerns Human melanoma MeS 2.21. Briefly: Cytotoxicity test (sulphorodamine B), MeS 2.21. The format is cell-based. To be noted: 24 h incubation, survival 48 h after removal.
Text: as §1, §2, §3

Series [3] has as its system Murine pulmonary adenocarcinoma Madison 109 (M109). Briefly: Antitumoral activity in murine pulmonary carcinoma model M109. The format is in vivo, BALB/c mouse. The settings on record: qdx5x3w; for TVI %: 2 days after final administration. On the procedure:
Murine pulmonary adenocarcinoma Madison 109 cells (M109) were maintained by s.c. passage of tumor fragments. The day of inoculation, the cell suspension was injected i.m. in the rear left limb of a 20 g male BALB/c mouse at a density of 3×10^5 cells/mouse. 3LL murine Lewis lung carcinoma was routinely maintained by i.m. passages (every 10-14 days) of 1×10^5 cells/mouse in C57BL/6J mice. For antitumor activity experiments, tumors were excised from donor mice and after mechanical desegregation and enzymatic digestion tumor cell viability was assessed by the trypan blue dye exclusion test. Then, 1×10^5 cells/100 μl/mouse were injected i.m. into the right hind leg muscle of C57BL/6J mice.
Tumor dimension measurements were performed using a digital calliper (Vernier Caliper) from the day in which the mass became measurable, twice weekly. The tumor mass was assessed from the size of the two principal dimensions (length and breadth), expressed in mm, applying the formula (length×breadth^2)/2 that is, the tumor volume in mm3. For every experimental group the percentage of inhibition of tumor volume (TVI %) was calculated, with respect to that of the control that is (100−(T/C %). TVI was evaluated 2 days after the final administration of ST1926.
The mean survival time (MST) was also measured and the increase in mean life-span expressed as ILS % (increase of life span) calculated as (MSTT/MSTC)×100−100.
The comparison between the values of TVI and of survival time, obtained for each group were performed with the non parametric Mann Whitney test for non paired data, using the Instat software from GraphPad inc.
The ST1926 solution was prepared immediately before use and solubilised in cremophor:ethanol 1:1 and subsequently diluted 1:4 in buffered saline solution. The treatments of the animals were carried out in a volume of 10 ml/kg. The treatment scheme for ST1926 at different doses was for 5 consecutive days (qdx5), beginning 1 day after the inoculation with the tumoral cells and was repeated for 3 cycles.
The mice (8 for each group) were weighed prior to each treatment, firstly, so as to be able to administer the correct quantity of substance, based on the eventual variations in weight observed throughout the period of drug administration, and also to be able to register the maximum weight loss throughout the treatment (BWL % max).

The test system of series [4] is ornithine decarboxylase in mouse epidermis. The settings on record: in vivo; cited from earlier work.

In the case of `O=C(O)/C=C/c1ccc(-c2ccc(O)c(C34CC5CC(CC(C5)C3)C4)c2)cc1` [ST1926, E-4-(3-(1-adamantyl)-4-hydroxyphenyl)cinnamic acid], the IC50 in series [1] was found to be 200 nM; in series [2], 230 nM. Also, the “BWL % Max” value in series [3] (M109, 10 mg/kg i.p.) worked out at 9%; in series [3] (M109, 10 mg/kg p.o.) it was 10%; in series [3] (M109, 15 mg/kg i.p.) it was 10%. The ILS % is 27% in series [3] (M109, 10 mg/kg i.p.); 59% in series [3] (M109, 10 mg/kg p.o.); 64% in series [3] (M109, 15 mg/kg i.p.). The “MST (range days)” value in series [3] (M109, 10 mg/kg i.p.) is on record as “*28 (25-35) days”; in series [3] (M109, 10 mg/kg p.o.) it was “**35 (27-42) days”; in series [3] (M109, 15 mg/kg i.p.) it was “**36 (30-42) days”. Besides, the TVI % was 18% in series [3] (M109, 10 mg/kg i.p.); “*49%” in series [3] (M109, 10 mg/kg p.o.); “*46%” in series [3] (M109, 15 mg/kg i.p.). Moreover, the “activity in the ODC assay compared with compound 1 (in words)” value in series [4] is listed as “lower activities”.

Usually IC50 stands for the point on the concentration scale where inhibition reaches its midpoint. Low values mean higher potency, high ones lower potency.
